Assay results taken from publication PMC8507746, “The FHP01 DDX3X Helicase Inhibitor Exerts Potent Anti-Tumor Activity In Vivo in Breast Cancer Pre-Clinical Models” (Cancers, 2021).

Assays:
[1] = molecular target: T1, HA-DDX3X immunoprecipitated from 293T cells (Homo sapiens, UniProt O00571); test: Qualitative in vitro helicase assay with immunoprecipitated HA-DDX3X (dsRNA unwinding); format: biochemical; details: human protein immunoprecipitated from 293T cells
T1 construct: host or cells: 293T cells, transient transfection, anti-HA immunoprecipitation; protein used on beads
T1 sequence (O00571 whole entry): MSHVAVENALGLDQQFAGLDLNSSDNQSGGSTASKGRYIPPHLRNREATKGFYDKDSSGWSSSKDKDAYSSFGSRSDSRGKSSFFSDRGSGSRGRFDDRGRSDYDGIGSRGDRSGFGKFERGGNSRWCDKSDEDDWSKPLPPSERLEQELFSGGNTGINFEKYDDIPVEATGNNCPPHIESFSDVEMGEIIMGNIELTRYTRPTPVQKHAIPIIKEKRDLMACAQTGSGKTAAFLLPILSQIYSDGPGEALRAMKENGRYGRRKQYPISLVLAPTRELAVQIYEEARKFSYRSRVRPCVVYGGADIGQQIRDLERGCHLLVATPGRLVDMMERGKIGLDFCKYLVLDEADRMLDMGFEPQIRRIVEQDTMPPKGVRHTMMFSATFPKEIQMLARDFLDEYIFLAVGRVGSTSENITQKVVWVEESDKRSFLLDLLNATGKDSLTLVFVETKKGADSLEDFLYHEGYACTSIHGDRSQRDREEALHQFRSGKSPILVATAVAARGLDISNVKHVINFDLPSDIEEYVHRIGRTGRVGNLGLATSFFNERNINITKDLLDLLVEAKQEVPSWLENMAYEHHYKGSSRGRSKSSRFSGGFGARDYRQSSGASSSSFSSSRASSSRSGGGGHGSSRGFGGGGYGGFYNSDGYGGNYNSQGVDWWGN
Experimental: 293T cells (3 × 10^5) were seeded in 6-well plates and, after 24 h, transfected with 1 μg of HA-DDX3 (Addgene plasmid # 44975) by using the Lipofectamine reagent (Thermo Fischer Scientific, Waltham, MA, USA). After 36 h, cells were lysed in NP-40 Lysis Buffer (20 mM HEPES pH = 7.5, 10 mM EGTA pH = 8, 40 mM β-glycerolphosphate, 1% NP40, 2.5 mM MgCl2, 2 mM Orthovanadate, 2 mM NaF, 1 mM DTT, and 1X protease inhibitors mixture) and 2 mg of proteins were immunoprecipitated with anti-HA antibodies (Covance, Princeton, NJ, USA) in NP40 lysis buffer. Immunoprecipitated samples were washed twice with lysis buffer and one time in helicase reaction buffer (50 mM Tris HCl pH = 8, 1 mM DTT, 5% glycerol, 10 mM MgCl2). Beads were then resuspended in 100 μL in helicase reaction buffer. […]
Ultimately, reactions were performed in a final volume 100 μL of helicase reaction buffer plus ATP 4 mM, 30 μL of beads used to immunoprecipitate HA-DDX3X, 20 nM of 18/36mer dsRNA, and 100 nM of competitor at 37 °C for 1 h and stopped by adding 10 μL of a stopping solution (EDTA 60 mM pH = 8, 40% glycerol, 0,6% SDS, 1% Orange G). […] Quantification of the ssRNA was performed by the ImageJ software (National Institutes of Health, Bethesda, MD, USA).

[2] = system: WNT signaling (TCF/LEF transcriptional activity); test: TCF/LEF luciferase reporter assay (WNT1/WNT3A) in MDA MB 231 cells; format: cell-based, human; details: MDA MB 231, 6 μM, 48 h
Experimental: MDA MB 231 cells were seeded at 3 × 10^4 cells/well density in 12-well plates, in triplicate, and transfected with 250 ng of the M50 Super 8× TOPFlash reporter vector (Addgene Plasmid #12456) and 1 μg of expression vectors inducing the WNT pathway (Wnt1-V5, Addgene plasmid #43807, and Wnt3A-V5, Addgene plasmid #43810). Eight hours after transfection, cells were treated with FHP01, XAV939 (Merck, Kenilworth, NJ, USA) or DMSO for indicated times prior to lysis in Passive Lysis Buffer (Promega, Madison, WI, USA). Luciferase activity in cellular lysates was assessed on a Glomax 20/20 luminometer (Promega) using the Luciferase Assay System (Promega). Results were normalized for GFP expression, upon transfection with GFP coding vector (1 μg). Representative results from 3 independent experiments are shown (n = 3). Error bars represent the Standard Error of the Mean. All samples were read at least in triplicate.

[3] = system: MDA MB 231 tumor xenografts; test: MDA MB 231 tumor xenograft growth in athymic nude mice; format: in vivo; details: for mean tumor volume: 45 mg/kg i.p. 3 times a week
Experimental: Animal experiments were performed in accordance with current Italian legislation and the animal protocol has been reviewed and approved by Italian Ministero della Salute (authorization n. 886/2020-PR). The study was designed to verify the effect of newly synthetized molecule with DDX3X inhibitor activity administered via i.p at a concentration of 45 mg/kg on the tumor growth of xenograft MDA MB 231 human breast cancer cells. In the study, n refers to the number of tumors expressed on both flanks of the animals. The sample size was calculated by g-power calculator placing a predictable large (2-fold increase) effect size, alpha as 0.05, and a confidence interval of 95% and we set our experimental unit number of 10 (corresponding to 5 animals). Total number of animals used in the study was 10. Six-week-old athymic nude mice were purchased from Charles River Laboratories. Five animals in each cage acclimatized in our animal facilities for 5 days in individually ventilated cages. Animals were fed with the lab diet ad libitum and water was accessible at all times and kept under standard specific pathogen-free conditions of 12 h light/dark cycle. Observational analysis was performed at the beginning of experimental procedure to ensure animal wellbeing (Table S1).
To establish xenograft tumors, MDA MB 231 cells were cultured in media as described above. On the day of experiment, cells (2.8 × 10^6) were suspended in 150 μL PBS 1:1 Matrigel and injected subcutaneously on both size of the flank region of nude mice. In order to determine tumor volume by manual caliper, the greatest longitudinal diameter (length) and the greatest transverse diameter (width) were determined. Tumor volumes based on caliper measurements were calculated by the modified ellipsoidal formula Tumor volume = 1/2(length × width^2).
Group allocation and treatments: once tumors reached a mean size of 24.82 ± 2.56 mm^3, animals were allocated in two groups by minimization strategy according to tumor size: the treatment group received 100 μL of a 45 mg/kg FHP01 suspended in a vehicle consisting of 10% DMSO, 5% Tween 80, 85% H2O via i.p. injection three times per week for 4 weeks; the control group included animals treated with 100 μL of vehicle (10% DMSO, 5% Tween 80, 85% H2O). One control animal reached HEP and was sacrificed and was not account for in the analysis. […]
For the final statistics, the number of tumors analyzed was 8 in the control group (one animal died for unknown reasons as certified by the AWB designed veterinary) and 9 for the treated group (the volume of one tumor was considered outlier). Results were reported as tumor volume increase, normalizing the value of each measurement to the baseline value of each sample and expressed as mean ± SEM. […]

DDX3X = system: DDX3X; set-up: method as in earlier work; details: in vitro enzymatic activity; read-out: IC50, DDX3X helicase activity; cited from earlier work

In the case of `CCCCc1cn(-c2ccc(NC(=O)Nc3ccccc3C(F)(F)F)cc2)nn1` [FHP01], the “inhibition of DDX3X helicase activity, qualitative” value [1] is reported as “activity comparable to RK33”, the “WNT1- and WNT3A-dependent TCF/LEF transcriptional activity” value [2] is reported as “strong inhibition” and the mean tumor volume ([3]; Day 0 of the treatment) is reported as 25.49± 4.58 mm^3. For the same molecule, the mean tumor volume ([3]; Day 18, control 73.40 ± 9.72) was 24.18 ± 4.44 mm^3, the mean tumor volume ([3]; Day 28, control 129.85 ± 21.39) was 37.23 ± 11.45 mm^3 and the “effect size, decrease in tumor growth (control/treated)” value ([3]; end of the procedure, 45 mg/kg i.p.) was “about 4 fold”. For the same molecule, the IC50 (DDX3X) was 300 nM.
